Results from ChEMBL document CHEMBL1208733, “Benzylisoquinoline alkaloids from the tubers of Corydalis ternata and their cytotoxicity” (Bioorg Med Chem Lett, 2010).
pIC50: −log10 of the molar value.

Tests used:
Format in all cases: functional, cell-based
[1] = tested on: A549; assay: Cytotoxicity against human A549 cells by SRB assay
[2] = tested on: HCT-15; assay: Cytotoxicity against human HCT15 cells by SRB assay
[3] = tested on: SK-MEL-2; assay: Cytotoxicity against human SK-MEL-2 cells by SRB assay
[4] = tested on: SK-OV-3; assay: Cytotoxicity against human SKOV3 cells by SRB assay

Row | Compound | pIC50 [1] | pIC50 [2] | pIC50 [3] | pIC50 [4]
1 | COc1ccc(C[C@@H]2NCCc3cc4c(cc32)OCO4)c(C(=O)O)c1OC [CORYTERNATINE B] | < 4.52 | 4.61 | < 4.52 | < 4.52
2 | O=C(O)c1c(C[C@@H]2NCCc3cc4c(cc32)OCO4)ccc2c1OCO2 [CORYTERNATINE A] | < 4.52 | 4.63 | < 4.52 | < 4.52
3 | CN1CCc2cc3c(cc2[C@@H]1Cc1ccc2c(c1C(=O)O)OCO2)OCO3 | < 4.52 | 4.56 | < 4.52 | < 4.52
4 | c1c2c(cc3c1OCO3)-c1cc3ccc4c(c3c[n+]1CC2)OCO4 [COPTISINE CHLORIDE] | 4.62 | 4.54 | < 4.52 | < 4.52
5 | COc1ccc2c(c1OC)CN1CCc3cc4c(cc3C1C2)OCO4 (stereo not given) [TETRAHYDROBERBERINE] | < 4.52 | < 4.52 | 4.55 | < 4.52
6 | COc1cc2c(cc1O)C1Cc3ccc4c(c3CN1CC2)OCO4 (stereo not given) [CHEILANTHIFOLINE] | 4.69 | 4.53 | 4.65 | 4.56
7 | COc1ccc(C[C@H]2c3cc(O)c(OC)cc3CCN2C)cc1O [(S)-RETICULINE] | < 4.52 | 4.53 | < 4.52 | < 4.52
8 | COc1cc2c(cc1OC)C1Cc3ccc(O)c(O)c3CN1CC2 (stereo not given) [DEMETHYLCORYDALMINE] | 5.08 | 5.54 | 5.10 | 5.29
9 | COc1c(O)ccc2cc3[n+](cc12)CCc1cc2c(cc1-3)OCO2 [THALIFENDINE] | 4.55 | < 4.52 | 4.59 | < 4.52
10 | COc1cccc2c1C(=O)c1c(O)c3c(c(O)c1C2=O)C[C@@](O)(C(=O)CO)C[C@@H]3O[C@H]1C[C@H](N)[C@H](O)[C@H](C)O1 [DOXORUBICIN] | – | 7.42 | 7.92 | 8.52
11 | COc1ccc(C[C@H]2NCCc3cc4c(cc32)OCO4)c(C(=O)O)c1OC [CORYTERNATINE C] | < 4.52 | 4.56 | < 4.52 | < 4.52
12 | COc1cc2c(cc1OC)C1Cc3ccc(O)c(OC)c3CN1CC2 (stereo not given) [CORYDALMINE] | < 4.52 | 4.58 | 4.57 | 4.54
13 | COc1ccc(C[C@@H]2c3cc(O)c(OC)cc3CCN2C)cc1O [(R)-RETICULINE] | < 4.52 | 4.57 | < 4.52 | < 4.52
14 | COc1ccc2cc3[n+](cc2c1OC)CCc1cc2c(cc1-3)OCO2 [BERBERINE CHLORIDE] | 5.20 | 4.78 | 4.86 | 4.78
